Measurements published in patent publication US5679678A, “Thienithiazine derivatives” (Chemisch Pharmazeutische Forschungsgesellschaft m.b.H., priority 1991, dated 1997).
pIC50: −log10 of the molar value.

What was measured:
[1] = system: cyclooxygenase; assay: Formation of prostaglandin D2 by neutrophils (measure of cyclooxygenase activity), A23187 stimulated, RIA; format: cell-based, Sprague-Dawley rats; settings: rat peritoneal neutrophils (lambda-carageenan), 5 min preincubation at 37° C., A23187 2 μmol/l, read-out: IC50 PGD2
Experimental: (§1) The formation of prostaglandin D2 by neutrophils was used as a measure of the cyclooxygenase activity, and the formation of leucotrien B4 as a measure of the 5-lipoxygenase activity.
(§2) Male Sprague-Dawley rats (250-300 g) received 1 mg of lambda-carageenan (dissolved in 0.5 ml of distilled water) injected intraperitoneally.
(§3) After 16 hours, the rats were sacrificed by exposure to diethyl ether. 15 ml of Hanks balanced salt solution (HBSS) were injected i.p., the neutrophils were harvested by aspiration (10 ml) and were centrifuged (5 min, 100 g, 4° C.), the supernatant solution was decanted, and the cells were resuspended in HBSS at 4° C. to a concentration of 5×10^6 cells/ml.
(§4) 400 μl of cell suspension (2×10^6 cells), […] of compound dissolved in DMSO and 49.5 μl of HBSS were incubated at 37° C. for 5 min. Then 50 μl of A23187 (2 μmol/1 final concentration) were added and subsequently the mixture was again incubated at 37° C. for 5 min.
(§5) The reaction was stopped by centrifugation at 10,000 g for 3 s, and the supernatant liquid was transferred into precooled plastic tubes and left in an ice bath for a maximum of 1 h before starting the radioimmunoassay measurement.
(§6) PGD2 and LTB4 were measured after dilution with HBSS using commercial RIA kits.
(§7) The comparison substance was 6-chloro-2-methyl-N-(2-pyridyl)-2H-thieno[2,3-e]-1,2-thiazine-3-carboxamide 1,1-dioxide ("LORNOXICAM", Compound A).

[2] = target: T1, 5-lipoxygenase (Rattus norvegicus, UniProt P12527); assay: Formation of leucotrien B4 by neutrophils (measure of 5-lipoxygenase activity), A23187 stimulated, RIA; format: cell-based, Sprague-Dawley rats; settings: rat peritoneal neutrophils (lambda-carageenan), 5 min preincubation at 37° C., A23187 2 μmol/l, read-out: IC50 LTB4
T1 construct: endogenous in cells; host or cells: peritoneal neutrophils of male Sprague-Dawley rats, elicited by i.p. carrageenan (16 h)
T1 sequence (P12527 1-673): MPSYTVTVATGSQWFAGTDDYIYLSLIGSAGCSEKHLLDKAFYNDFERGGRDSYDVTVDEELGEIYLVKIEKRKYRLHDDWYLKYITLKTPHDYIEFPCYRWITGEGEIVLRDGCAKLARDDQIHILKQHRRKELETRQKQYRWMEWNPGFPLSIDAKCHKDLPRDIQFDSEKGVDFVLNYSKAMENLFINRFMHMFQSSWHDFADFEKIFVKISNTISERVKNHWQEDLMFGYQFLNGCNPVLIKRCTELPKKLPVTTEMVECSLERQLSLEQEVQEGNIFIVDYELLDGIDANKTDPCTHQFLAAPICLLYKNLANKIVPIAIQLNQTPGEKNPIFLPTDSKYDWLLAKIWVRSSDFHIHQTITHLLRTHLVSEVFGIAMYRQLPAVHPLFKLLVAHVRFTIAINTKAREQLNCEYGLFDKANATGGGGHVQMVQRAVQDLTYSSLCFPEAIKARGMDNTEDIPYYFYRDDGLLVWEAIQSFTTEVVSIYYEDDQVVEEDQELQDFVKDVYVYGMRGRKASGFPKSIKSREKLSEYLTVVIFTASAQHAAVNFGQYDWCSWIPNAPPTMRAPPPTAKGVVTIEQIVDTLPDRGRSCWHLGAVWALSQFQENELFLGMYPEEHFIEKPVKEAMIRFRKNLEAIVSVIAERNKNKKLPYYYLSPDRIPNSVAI
Experimental: as §1, §2, §3, §4, §5, §6, §7

SMILES	pIC50 [1]	pIC50 [2]
CN1C(C(=O)Nc2nc(-c3ccccc3)cs2)=C(O)c2sc(Cl)cc2S1(=O)=O [Compound 2, 6-Chloro-4-hydroxy-2-methyl-N-(4phenyl-2-thiazolyl)-2H-thieno[2,3-e]-1,2-thiazine-3-carboxamide 1,1-dioxide]	7.57	< 5.00
CN1C(C(=O)Nc2ccccn2)=C(O)c2sc(-c3cccs3)cc2S1(=O)=O [Compound 15, 4-Hydroxy-2-methyl-N-(2-pyridinyl)-6-(2-thienyl)-2H-thieno[2,3-e]-1,2-thiazine-3-carboxamide 1,1-dioxide]	8.46	< 5.00
CN1C(C(=O)Nc2nc(-c3cc4ccccc4s3)co2)=C(O)c2sc(Cl)cc2S1(=O)=O [Compound 12, N-[4-(2-Benzo[b]thienyl)-2-oxazolyl]-6-chloro-4-hydroxy-2-methyl-2H-thieno[2,3e]-thiazine-3-carboxamide 1,1-dioxide]	6.72	5.57
CN1C(C(=O)Nc2nc(-c3ccc(Oc4ccc(F)cc4)o3)cs2)=C(O)c2sc(-c3ccco3)cc2S1(=O)=O [Compound 5, N-{4[5-(4-Fluorophenoxy)-2-furanyl]-2-thiazolyl}-6-(2-furanyl)-4-hydroxy-2-methyl-2H-thieno[2,3-]-1,2-thiazine-3-carboxamide 1,1-dioxide]	6.57	6.18
CN1C(C(=O)Nc2cccc(-c3cc4ccccc4o3)n2)=C(O)c2sc(-c3ccco3)cc2S1(=O)=O [Compound 19, N-[6-(2-Benzo[b]furyl)-2-pyridinyl]-6-(2-furyl)-4-hydroxy-2-methyl-2H-thieno[2,3e]-1,2-thiazine-3-carboxamide 1,1-dioxide]	7.41	5.85
CN1C(C(=O)Nc2nc(-c3cc4ccccc4o3)co2)=C(O)c2sc(-c3ccco3)cc2S1(=O)=O [Compound 11]	6.70	5.68
CN1C(C(=O)Nc2nc(-c3cc4ccccc4o3)cs2)=C(O)c2sc(Cl)cc2S1(=O)=O [Compound 8, N-[4-(2-Benzo[b]furanyl)-2-thiazolyl]-6-chloro-4-hydroxy-2-methyl-2H-thieno[2,3-e]-1,2-thiazine-3-carboxamide 1,1-dioxide]	7.00	5.66
CN1C(C(=O)Nc2nc(-c3ccc(-c4ccc(F)cc4)o3)cs2)=C(O)c2sc(Cl)cc2S1(=O)=O [Compound 6, 6-Chloro-N-{4-[5-(4-fluorophenyl)-2-furanyl]-2-thiazolyl}-4-hydroxy-2-methyl-2H-thieno[2,3-e]-1,2-thiazine-3-carboxamide 1,1-dioxide]	5.44	6.24
CN1C(C(=O)Nc2ccccn2)=C(O)c2sc(Cl)cc2S1(=O)=O [Compound A, reference compound]	7.70	< 5.00
CN1C(C(=O)Nc2nc(-c3ccc(-c4ccc(F)cc4)o3)cs2)=C(O)c2sc(-c3ccco3)cc2S1(=O)=O [Compound 7, N-{4-[5-(4-Fluorophenyl)-2-furanyl]-2-thiazolyl}-6-(2-furanyl)-4-hydroxy-2-methyl-2H-thieno[2,3-e]-1,2-thiazine-3-carboxmide 1,1-dioxide]	5.80	6.14
CN1C(C(=O)Nc2cccc(-c3cc4ccccc4o3)n2)=C(O)c2sc(-c3ccccc3)cc2S1(=O)=O [Compound 17, N-[6-(2-Benzo[b]furyl)-2-pyridinyl]-4-hydroxy-2-methyl-6-phenyl-2H-thieno[2,3-e]-1,2-thiazine-3-carboxamide 1,1-dioxide]	6.72	5.89
CN1C(C(=O)Nc2ccccn2)=C(O)c2sc(-c3ccccc3)cc2S1(=O)=O [Compound 14, 4-Hydroxy-2-methyl-6-phenyl-N-(2-pyridinyl)-2H-thieno-[2,3-e]-1,2-thiazine-3-carboxamide 1,1-dioxide]	7.42	< 5.00

The remaining compounds from weak to strong by pIC50 [1], led by results:

pIC50 [1]	pIC50 [2]	SMILES
5.47	6.33	CN1C(C(=O)Nc2nc(-c3ccc(Oc4ccc(F)cc4)o3)cs2)=C(O)c2sc(Cl)cc2S1(=O)=O [Compound 4, 6-Chloro-N-{4-[5-(4-fluorophenoxy)-2-furanyl]-2-thiazolyl}-4-hydroxy-2-methyl-2H-thieno[2,3-e]-1,2-thiazine-3-carboxamide 1,1-dioxide]
7.17	5.89	CN1C(C(=O)Nc2cccc(-c3cc4ccccc4o3)n2)=C(O)c2sc(-c3cccs3)cc2S1(=O)=O [Compound 18, N-[6-(2-Benzo[b]furyl)-2-pyridinyl]-4-hydroxy-2-methyl-6-(2-thienyl)-2H-thieno[2,3-e]-1,2-thiazine-3-carboxamide 1,1-dioxide]
7.41	5.80	CN1C(C(=O)Nc2nc(-c3cc4ccccc4o3)cs2)=C(O)c2sc(-c3ccco3)cc2S1(=O)=O [Compound 9, N-[4-(2-Benzo[b]furanyl)-2-thiazolyl]-6-(2-furanyl)-4-hydroxy-2-methyl-2H-thieno[2,3-e]-1,2-thiazine-3-carboxamide 1,1-dioxide]
7.77	5.28	CN1C(C(=O)Nc2nc(-c3ccccc3)cs2)=C(O)c2sc(-c3ccco3)cc2S1(=O)=O [Compound 3, 6-(2-Furyl)-4-hydroxy-2-methyl-N-(4-phenyl-2thiazolyl)-2H-thieno[2,3-e]-1,2-thiazine-3-carboxamide 1,1-dioxide]
7.77	< 5.00	CN1C(C(=O)Nc2nccs2)=C(O)c2sc(Cl)cc2S1(=O)=O [Compound 1, 6-Chloro-4-hydroxy-2-methyl-N-(2-thiazolyl)-2H-thieno[2,3-e]-1,2-thiazine-3-carboxamide 1,1-dioxide]
8.02	< 5.00	CN1C(C(=O)Nc2ccccn2)=C(O)c2sc(-c3ccco3)cc2S1(=O)=O [Compound 16, 6-(2-Furyl)-4-hydroxy-2-methyl-N-(2-pyridinyl)-2H-thieno[2,3-e]-1,2-thiazine-3-carboxamide 1,1-dioxide]
